We go through eleven compounds from patent US20260015350A1, “AZAQUINAZOLINE PAN-KRAS INHIBITORS” (Mirati Therapeutics, Inc., priority 2022, published 2026).

The target in experiment [1] is T1, KRas^G12D (Homo sapiens, UniProt P01116, G12D).
T1 construct: Biotinylated KRas (corresponding to amino acids 1-169, produced at Accelegan Inc.); biotin (biotinylated); purchased Accelegan Inc
Kind of experiment: KRas binding assay (TR-FRET tracer displacement), KRas G12D.

Experiment [2] concerns the target T2, KRas^G12V (Homo sapiens, UniProt P01116, G12V).
T2 construct: Biotinylated KRas (corresponding to amino acids 1-169, produced at Accelegan Inc.); biotin (biotinylated); purchased Accelegan Inc
Kind of experiment: KRas binding assay (TR-FRET tracer displacement), KRas G12V.

Experiment [3] has as its target T3, KRas^G12R (Homo sapiens, UniProt P01116, G12R).
T3 construct: Biotinylated KRas (corresponding to amino acids 1-169, produced at Accelegan Inc.); biotin (biotinylated); purchased Accelegan Inc
The experiment in a line: KRas binding assay (TR-FRET tracer displacement), KRas G12R.

For experiment [4], the system named is KRas-mediated phosphorylation of ERK in H727 cells. The experiment in a line: Inhibition of KRas-mediated phosphorylation of ERK (Cisbio HTRF pERK), H727 cells. The format is cell-based. To be noted: Homo sapiens, NCI-H727, H727 cells; HTRF pERK. On the procedure:
(§1) Inhibition of KRas Phosphorylation of ERK (HTRF) by Exemplary Compounds of Formula (I) Cisbio HTRF Advanced PERK Assay Catalog #64[…] […] Add 10 mL of media to stop trypsinizing. Pipette the cells into a conical bottom 50 mL centrifuge tube and centrifuge 5 min×1000 rpm. […] Re-suspend the cell pellet in media, take a cell count, and then adjust the cell density using fresh media. […] Seed 6,000 cells into cell culture plate with 50 μL media. […] Use Tecan to complete the compound addition. Compounds start from 10 uM top, 3-fold dilution, and 10 doses. The final DMSO concentration is 0.8%. Dispensed 0.2 uM Trametinib as Min control. […] Incubate cell plate for 3 hrs in the incubator. […] Dilute 1 volume of 4× lysis buffer with 3 volumes of deionized water. […] Keep lysis buffer on the ice. […] At the end of the compound treatment, flick-off the media. […] Add 35 μL of lysis buffer per well using a Multidrop Combi. Then place on a plate agitator shaking at 300 rpm at 4° C. for 40 mins. […] Make up the HTRF antibody buffer. For each assay plate, mix 50 μL of d2-conjugate antibody with 950 μL of detection buffer. Similarly, mix 50 μL of Cryptate antibody with 950 μL of detection buffer. Then mix the two diluted antibodies together. […] Dispense 3.4 μL the antibody buffer to wells of an empty assay plate. Seal the plate and centrifuge plate 30 sec×1000 rpm. […] At the end of the 4° C. lysis, centrifuge the lysate plates 3 mins×1500 rpm. […] Use the Bravo to transfer 13.6 μL of lysate from cell culture plate to assay plate. Then incubate assay plate for 2 hrs at room temperature. 8. At the end of incubation, read plate on the Envision after centrifuging plate 30 sec×1000 rpm.

In experiment [5] the test system is KRas-mediated phosphorylation of ERK in AsPC-1 cells. The experiment in a line: Inhibition of KRas-mediated phosphorylation of ERK (Cisbio HTRF pERK), AsPC-1 cells. The class given is cell-based. To be noted: Homo sapiens, ASPC1, AsPC-1 cells; HTRF pERK. The method, then: as §1

T3 sequence (P01116 1-169 isoform P01116-2 G12R): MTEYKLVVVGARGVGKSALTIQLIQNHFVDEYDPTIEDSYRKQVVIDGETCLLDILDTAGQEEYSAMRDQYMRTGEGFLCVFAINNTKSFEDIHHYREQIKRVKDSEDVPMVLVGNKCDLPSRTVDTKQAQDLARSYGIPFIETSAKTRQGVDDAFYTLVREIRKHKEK
T2 sequence (P01116 1-169 isoform P01116-2 G12V): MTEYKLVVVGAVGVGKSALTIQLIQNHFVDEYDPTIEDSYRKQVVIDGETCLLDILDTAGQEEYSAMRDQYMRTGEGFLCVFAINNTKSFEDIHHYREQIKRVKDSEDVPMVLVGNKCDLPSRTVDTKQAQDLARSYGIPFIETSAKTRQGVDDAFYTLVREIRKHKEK
T1 sequence (P01116 1-169 isoform P01116-2 G12D): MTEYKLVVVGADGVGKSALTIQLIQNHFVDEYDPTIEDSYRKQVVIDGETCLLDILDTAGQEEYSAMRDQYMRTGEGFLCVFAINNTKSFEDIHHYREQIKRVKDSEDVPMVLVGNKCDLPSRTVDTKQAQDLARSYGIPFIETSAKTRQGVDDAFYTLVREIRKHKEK

Turning to `CCc1c(F)ccc2cc(O)cc(-c3ncc4c(N5CCCn6nc(C(=O)N(C)C)cc6C5)nc(N5CC(C)(N)C5)nc4c3F)c12` [Example 532, 5-(2-(3-amino-3-methylazetidin-1-yl)-7-(8-ethyl-7-fluoro-3-hydroxynaphthalen-1-yl)-8-fluoropyrido[4,3-d]pyrimidin-4-yl)-N,N-dimethyl-5,6,7,8-tetrahydro-4H-pyrazolo[1,5-a][1,4]diazepine-2-carboxamide], the IC50 was 9 nM in experiment [1]; 15 nM in experiment [2]; 24 nM in experiment [3]; more than 10000 nM in experiment [4]; more than 10000 nM in experiment [5].
For `CCc1c(F)ccc2cc(O)cc(-c3ncc4c(NC5CCONC5)nc(OC[C@@]56CCCN5C[C@H](F)C6)nc4c3F)c12` (stereo partly drawn) [Example 542, 4-(4-((1,2-oxazinan-4-yl)amino)-8-fluoro-2-(((2R,7aS)-2-fluorohexahydro-1H-pyrrolizin-7a-yl)methoxy)pyrido[4,3-d]pyrimidin-7-yl)-5-ethyl-6-fluoronaphthalen-2-ol], the IC50 was 60 nM in experiment [1]; 9 nM in experiment [2]; 6 nM in experiment [3]; 2330 nM in experiment [4]; more than 10000 nM in experiment [5].
In the same order, the values of `CCc1c(F)ccc2cc(O)cc(-c3ncc4c(N5C[C@H]6CC[C@@]6(O)C5)nc(OC[C@@]56CCCN5C[C@H](F)C6)nc4c3F)c12` [Example 546, (1S,5R)-3-(7-(8-ethyl-7-fluoro-3-hydroxynaphthalen-1-yl)-8-fluoro-2-(((2R,7aS)-2-fluorohexahydro-1H-pyrrolizin-7a-yl)methoxy)pyrido[4,3-d]pyrimidin-4-yl)-3-azabicyclo[3.2.0]heptan-1-ol] are 72 nM, 35 nM, 37 nM, 1010 nM and 1830 nM.
For `CCc1c(F)ccc2cc(O)cc(-c3ncc4c(N5CCC6CCCC5C6)nc(OC[C@@]56CCCN5C[C@H](F)C6)nc4c3F)c12` (stereo partly drawn) [Example 552, 4-(4-(2-azabicyclo[3.3.1]nonan-2-yl)-8-fluoro-2-(((2R,7aS)-2-fluorotetrahydro-1H-pyrrolizin-7a(5H)-yl)methoxy)pyrido[4,3-d]pyrimidin-7-yl)-5-ethyl-6-fluoronaphthalen-2-ol] the same measures were 810 nM, 244 nM, 71 nM, 5300 nM and 9330 nM.
In the same order, the values of `CCc1c(F)ccc2cc(O)cc(-c3ncc4c(NCC5CNC(=O)CO5)nc(OC[C@@]56CCCN5C[C@H](F)C6)nc4c3F)c12` (stereo partly drawn) [Example 556, 6-(((7-(8-ethyl-7-fluoro-3-hydroxynaphthalen-1-yl)-8-fluoro-2-(((2R,7aS)-2-fluorotetrahydro-1H-pyrrolizin-7a(5H)-yl)methoxy)pyrido[4,3-d]pyrimidin-4-yl)amino)methyl) morpholin-3-one] are 10 nM, 2 nM, less than 2 nM, 2510 nM and more than 10000 nM.
For the compound `CCc1c(F)ccc2cc(O)cc(-c3ncc4c(N5CCC(n6cnnc6)C5)nc(OC[C@@]56CCCN5C[C@H](F)C6)nc4c3F)c12` (stereo partly drawn) [Example 564, 4-(4-(3-(4H-1,2,4-triazol-4-yl)pyrrolidin-1-yl)-8-fluoro-2-(((2R,7aS)-2-fluorotetrahydro-1H-pyrrolizin-7a(5H)-yl)methoxy)pyrido[4,3-d]pyrimidin-7-yl)-5-ethyl-6-fluoronaphthalen-2-ol], the IC50 in experiment [1] was 640 nM; in experiment [2] it was 16 nM; in experiment [3], 31 nM; in experiment [4], more than 10000 nM; in experiment [5], more than 10000 nM.
Regarding `CCc1c(F)ccc2cc(O)cc(-c3ncc4c(N5CC6(C)CC(CO)(C5)C6)nc(OC[C@@]56CCCN5C[C@H](F)C6)nc4c3F)c12` [Example 565, 5-ethyl-6-fluoro-4-(8-fluoro-2-(((2R,7aS)-2-fluorohexahydro-1H-pyrrolizin-7a-yl)methoxy)-4-(1-(hydroxymethyl)-5-methyl-3-azabicyclo[3.1.1]heptan-3-yl)pyrido[4,3-d]pyrimidin-7-yl)naphthalen-2-ol], the IC50 in experiment [1] was 1160 nM; in experiment [2], 908 nM; in experiment [3], 1030 nM; in experiment [4], more than 10000 nM; in experiment [5], more than 10000 nM.
Take `CCc1c(F)ccc2cc(O)cc(-c3ncc4c(N5CCN6C[C@@H](O)C[C@H]6C5)nc(OC[C@@]56CCCN5C[C@H](F)C6)nc4c3F)c12` [Example 567, (7S,8aS)-2-(7-(8-ethyl-7-fluoro-3-hydroxynaphthalen-1-yl)-8-fluoro-2-(((2R,7aS)-2-fluorohexahydro-1H-pyrrolizin-7a-yl)methoxy)pyrido[4,3-d]pyrimidin-4-yl) octahydropyrrolo[1,2-a]pyrazin-7-ol]: the IC50 in experiment [1] is 682 nM; in experiment [2], 2430 nM; in experiment [3] it was 1460 nM; in experiment [4], more than 10000 nM; in experiment [5], more than 10000 nM.
Take `CCc1c(F)ccc2cc(O)cc(-c3ncc4c(N5CC6(CO)CC5CCO6)nc(OC[C@@]56CCCN5C[C@H](F)C6)nc4c3F)c12` (stereo partly drawn) [Example 572, 5-ethyl-6-fluoro-4-(8-fluoro-2-(((2R,7aS)-2-fluorohexahydro-1H-pyrrolizin-7a-yl)methoxy)-4-(1-(hydroxymethyl)-2-oxa-6-azabicyclo[3.2.1]octan-6-yl)pyrido[4,3-d]pyrimidin-7-yl)naphthalen-2-ol]: the IC50 in experiment [1] is 1970 nM; in experiment [2], 266 nM; in experiment [3], 162 nM; in experiment [4], 4190 nM; in experiment [5], more than 10000 nM.
`CCc1c(F)ccc2cc(O)cc(-c3ncc4c(N[C@H](C)CN5CC(C)(O)C5)nc(OC[C@@]56CCCN5C[C@H](F)C6)nc4c3F)c12` [Example 577, 1-((R)-2-((7-(8-ethyl-7-fluoro-3-hydroxynaphthalen-1-yl)-8-fluoro-2-(((2R,7aS)-2-fluorohexahydro-1H-pyrrolizin-7a-yl)methoxy)pyrido[4,3-d]pyrimidin-4-yl)amino)propyl)-3-methylazetidin-3-ol]: the concentration for half-maximal inhibition (IC50) was 29 nM in experiment [1]; 606 nM in experiment [2]; 727 nM in experiment [3]; more than 10000 nM in experiment [4]; 8440 nM in experiment [5].
In the same order, the values of `CCc1c(F)ccc2cc(O)cc(-c3ncc4c(NC56CCC(C#N)(CC5)CC6)nc(OC[C@@]56CCCN5C[C@H](F)C6)nc4c3F)c12` [Example 585, 4-((7-(8-ethyl-7-fluoro-3-hydroxynaphthalen-1-yl)-8-fluoro-2-(((2R,7aS)-2-fluorohexahydro-1H-pyrrolizin-7a-yl)methoxy)pyrido[4,3-d]pyrimidin-4-yl)amino)bicyclo[2.2.2]octane-1-carbonitrile] are 434 nM, 103 nM, 76 nM, 2060 nM and 4610 nM.
